# Patent publication US8828988B2 (Tetraphase Pharmaceuticals, Inc., priority 2009, dated 2014)
# Like-named read-outs stand apart in the source and are kept apart here.
# Assays:
# [1] = tested on: Enterococcus faecalis EF159, tetracycline-resistant, tet(M); assay: MIC assay, EF159; type: cell-based
# [2] = tested on: Escherichia coli EC107, ATCC 25922; assay: MIC assay, EC107; type: cell-based
# [3] = tested on: Enterobacter cloacae EC108, ATCC 13047; assay: MIC assay, EC108; type: cell-based; conditions: ATCC13047, Table 9, read-out: MIC Enterobacter cloaceae ATCC 13047
# [4] = tested on: E. faecalis clinical isolates; assay: MIC50, MIC90 and MIC range, panel of clinical isolates (Example 20); type: cell-based; conditions: 24 isolates, in µg/mL
# Method: (§1) The assays were run as follows.
# (§2) Both values, as well as the MIC range (the lowest and highest MIC value observed for a collection of organisms), were determined for the isolates listed in Table 3.
# [5] = tested on: S. aureus clinical isolates; assay: as above; type: cell-based; conditions: MRSA, 30 isolates; in µg/mL
# Method: as §1, §2
# [6] = tested on: S. pneumoniae clinical isolates; assay: as above; type: cell-based; conditions: 19 isolates, in µg/mL
# Method: as §1, §2
# [7] = tested on: E. coli S30 extract system, coupled in vitro transcription/translation, firefly luciferase readout; assay: In vitro transcription/translation (TnT) assay; type: biochemical; conditions: Table 8
# [8] = Pharmacokinetic analysis in Sprague-Dawley rats; conditions: IV, single dose 1 mg/kg, mean
compound,measurement,setting,value
CN(C)CC(C)(C)CNc1nc(Cl)c2c(c1O)C(=O)C1=C(O)[C@]3(O)C(=O)C(C(N)=O)=C(O)[C@@H](N(C)C)[C@@H]3C[C@@H]1C2 [Compound 151],MIC,"[1]; Table 8, read-out: MIC E. faecalis tetM",2 µg/mL
same,MIC,"[1]; Table 9, read-out: MIC E. faecalis EF159 (tet)M",2 µg/mL
same,MIC,"[2]; ATCC25922, Table 8, read-out: MIC E. coli ATCC 25922",0.5 µg/mL
same,MIC,"[2]; ATCC25922, Table 9, read-out: MIC E. coli ATCC 25922",0.5 µg/mL
same,MIC,"[2]; ATCC25922, Table 12, read-out: MIC E. coli ATCC 25922",0.25 µg/mL
same,MIC,[3],2 µg/mL
same,MIC Range,[4],0.031-4
same,MIC Range,[5],0.5-8
same,MIC Range,[6],<=0.016-0.25
same,E. coli TnT,[7],0.7 µg/mL
same,Clobs,[8],3.3723 mL/min/kg
same,Vzobs,[8],1.25614 L/kg
same,half-life,[8],4.30 h
